Like-named read-outs stand apart in the source and are kept apart here.
What was measured:
[1] = molecular target: GABA receptor-chloride ionophore complex (GR complex); test: [35S]TBPS binding modulation assay; conditions: for Max. Inhib., maximal % of specifically bound [35S]-TBPS displaced: saturating concentrations of test compound
[2] = tested on: metrazol-induced seizures; test: Time course of antimetrazol activity of prodrugs; assay type: in vivo, mice (CF1); conditions: 60 mg/kg ip; for responders at 60 mg/kg: Mus musculus
progesterone receptor = molecular target: T1, progesterone receptor (Bos taurus, UniProt F1N712); test: Inhibition of 3H-progesterone binding to bovine uteral progesterone receptors
T1 construct: from tissue; host or cells: bovine uterus cytosol
T1 sequence (F1N712 1-914): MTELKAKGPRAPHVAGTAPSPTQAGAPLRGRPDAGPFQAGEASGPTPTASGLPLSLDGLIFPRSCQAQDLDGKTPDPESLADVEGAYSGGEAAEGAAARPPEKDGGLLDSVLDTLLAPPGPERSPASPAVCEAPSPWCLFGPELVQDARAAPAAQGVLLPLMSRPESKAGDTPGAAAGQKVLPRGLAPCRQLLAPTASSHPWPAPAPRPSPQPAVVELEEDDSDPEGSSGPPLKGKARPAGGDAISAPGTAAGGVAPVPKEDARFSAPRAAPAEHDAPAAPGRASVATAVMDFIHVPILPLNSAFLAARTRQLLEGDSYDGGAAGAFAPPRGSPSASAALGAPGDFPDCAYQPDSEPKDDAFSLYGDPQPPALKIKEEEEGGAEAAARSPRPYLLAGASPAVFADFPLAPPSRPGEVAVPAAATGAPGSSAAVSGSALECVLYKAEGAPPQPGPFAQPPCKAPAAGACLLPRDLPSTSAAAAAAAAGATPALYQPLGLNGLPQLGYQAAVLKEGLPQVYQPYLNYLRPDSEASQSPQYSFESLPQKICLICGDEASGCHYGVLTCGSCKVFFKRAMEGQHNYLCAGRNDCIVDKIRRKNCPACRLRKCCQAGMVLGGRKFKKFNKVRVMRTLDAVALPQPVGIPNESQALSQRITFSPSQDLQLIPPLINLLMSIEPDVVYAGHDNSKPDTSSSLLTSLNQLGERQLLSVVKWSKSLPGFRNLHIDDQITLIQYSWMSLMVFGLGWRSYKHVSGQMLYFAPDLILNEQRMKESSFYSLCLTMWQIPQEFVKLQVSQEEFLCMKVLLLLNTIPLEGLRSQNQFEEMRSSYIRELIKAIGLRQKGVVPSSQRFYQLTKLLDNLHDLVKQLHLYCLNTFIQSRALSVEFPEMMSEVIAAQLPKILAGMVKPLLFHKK
Procedure: The hormonal activity of drugs described herein was further studied through testing their potential estrogenic, progestinic, mineralocorticoid and glucocorticoid activities. These activities were analyzed by monitoring the ability of the drugs to inhibit binding of the steroid hormones to their respective hormone receptors.
For the data presented in Table 9, bovine uteri cytosol was isolated as they were for Table 7 and used for following binding to progesterone receptors by following the inhibition of ^3 H-progesterone, the natural ligand.

[3] = read-out: IC50, inhibition of [35S]-TBPS binding, +5 μM GABA, in the presence of 5 μM GABA
[4] = 1 hr, read-out: Antimetrazol activity, % of animals protected, 1 hr
[5] = 4 hr, read-out: Antimetrazol activity, % of animals protected, 4 hr
[6] = read-out: % of inhibition of 3H-progesterone binding, A, competitor 10^-5 M, 0.15 nM 3H-progesterone
[7] = read-out: % of inhibition of 3H-progesterone binding, A, competitor 10^-6 M, 0.15 nM 3H-progesterone
[8] = read-out: % of inhibition of 3H-progesterone binding, B, competitor 10^-5 M, 0.25 nM 3H-progesterone
[9] = read-out: % of inhibition of 3H-progesterone binding, B, competitor 10^-6 M, 0.25 nM 3H-progesterone
[10] = washed synaptoneurosomes, no GABA added
[11] = read-out: IC50, inhibition of [35S]-TBPS binding, No GABA, washed synaptoneurosomes, no GABA added

C[C@]12CC[C@@H](O)C[C@@H]1CC[C@@H]1[C@@H]2CC[C@]2(C)[C@@H](C(=O)CCl)CC[C@@H]12 [21-CHLORO-5α-PREGNAN-3α-OL-20-ONE]
IC50 [1, 3]: 0.08 µM
Max. Inhib., maximal % of specifically bound [35S]-TBPS displaced [1]: 100%

CC(=O)OCC(=O)[C@H]1CC[C@H]2[C@@H]3CC[C@H]4C[C@H](OC(C)=O)CC[C@]4(C)[C@H]3CC[C@]12C
responders at 60 mg/kg [2, 4]: 0%
responders at 60 mg/kg [2, 5]: 0%

CC(=O)[C@H]1CC[C@H]2[C@@H]3CC[C@@H]4C[C@H](O)CC[C@]4(C)[C@H]3CC[C@]12C [5β-pregnan-3α,ol-20-one]
inhibition at 10 µM (progesterone receptor; [6]): 17%
inhibition at 1 µM (progesterone receptor; [7]): 9%
inhibition at 10 µM (progesterone receptor; [8]): 13%
inhibition at 1 µM (progesterone receptor; [9]): 1%

C[C@]12CC[C@@H]3c4ccc(O)cc4CC[C@H]3[C@@H]1CC[C@@H]2O [17β-ESTRADIOL, reference compound]
IC50, inhibition of [35S]-TBPS binding, +5 μM GABA ([1]; in the presence of 5 μM GABA): Inactive
Max. Inhib., maximal % of specifically bound [35S]-TBPS displaced [1]: 0%
IC50, inhibition of [35S]-TBPS binding, No GABA [1, 10]: Inactive

CC(=O)C1=CC[C@H]2[C@@H]3CC[C@H]4C[C@H](O)CC[C@]4(C)[C@H]3CC[C@]12C [3α-HYDROXY-5α-PREGN-16-EN-20-ONE]
IC50 [1, 3]: 0.161 µM
Max. Inhib., maximal % of specifically bound [35S]-TBPS displaced [1]: 100%

CO[C@@H]1C[C@H]2[C@@H]3CC[C@H]4C[C@H](O)CC[C@]4(C)[C@H]3CC[C@]2(C)[C@H]1C(C)=O [3α-HYDROXY-5α-PREGNAN-16α-METHOXY-20-ONE]
IC50 [1, 3]: 4.5 µM
Max. Inhib., maximal % of specifically bound [35S]-TBPS displaced [1]: 73%

CC(=O)[C@H]1CC[C@H]2[C@@H]3CC[C@H]4C[C@H](OC(=O)c5ccccc5)CC[C@]4(C)[C@H]3CC[C@]12C
responders at 60 mg/kg [2, 4]: 33%

C[C@]12C[C@H](O)[C@H]3[C@@H](CCC4=CC(=O)CC[C@@]43C)[C@@H]1CC[C@@H]2C(=O)CO [4-PREGNEN-11b,21-DIOL- 3,20-DIONE, reference compound]
IC50 [1, 3]: > 100 µM
Max. Inhib., maximal % of specifically bound [35S]-TBPS displaced [1]: 21%
IC50, inhibition of [35S]-TBPS binding, No GABA [1, 10]: Inactive

C[C@]12CCC(=O)C[C@@H]1CC[C@@H]1[C@@H]2CC[C@]2(C)[C@@H](O)CC[C@@H]12 [5α-ANDROSTAN-17β-OL-3-ONE, 5α-ANDROSTAN-17β-OL-3- ONE, reference compound]
IC50 [1, 3]: 18 µM
IC50 [1, 11]: > 100 µM
Max. Inhib., maximal % of specifically bound [35S]-TBPS displaced [1]: 52%

COc1ccc(C(=O)O[C@@H]2CC[C@@]3(C)[C@@H](CC[C@@H]4[C@@H]3CC[C@]3(C)[C@@H](C(C)=O)CC[C@@H]43)C2)cc1
responders at 60 mg/kg [2, 4]: 17%
responders at 60 mg/kg [2, 5]: 17%

CC(=O)[C@H]1CC[C@H]2[C@@H]3CC[C@H]4C[C@H](OC(=O)C5CCC5)CC[C@]4(C)[C@H]3CC[C@]12C
Antimetrazol activity, % of animals protected, 20 hr [2]: 17%
responders at 60 mg/kg [2, 4]: 17%

CCCCC(=O)O[C@@H]1CC[C@@]2(C)[C@@H](CC[C@@H]3[C@@H]2CC[C@]2(C)[C@@H](C(C)=O)CC[C@@H]32)C1
Antimetrazol activity, % of animals protected, 20 hr [2]: 33%
responders at 60 mg/kg [2, 4]: 33%
responders at 60 mg/kg [2, 5]: 33%

CC(=O)[C@H]1CC[C@H]2[C@@H]3CC[C@H]4C[C@@](C)(O)CC[C@]4(C)[C@H]3CC[C@]12C [3β-HYDROXY-3α-METHYL-5α-PREGNAN-20-ONE, 3β-HYDROXY-3α-METHYL-5α- PREGNAN-20-ONE]
IC50 [1, 3]: 7.4 µM
Max. Inhib., maximal % of specifically bound [35S]-TBPS displaced [1]: 55%

CC(=O)[C@H]1CC[C@H]2[C@@H]3CC[C@H]4C[C@H](OC(=O)c5cccnc5)CC[C@]4(C)[C@H]3CC[C@]12C
Antimetrazol activity, % of animals protected, 20 hr [2]: 50%

C[C@@H](O)[C@H]1CC[C@H]2[C@@H]3CC[C@H]4C[C@H](O)CC[C@]4(C)[C@H]3CC[C@]12C [5α-PREGNAN-3α,20β-DIOL]
IC50 [1, 3]: 1 µM
Max. Inhib., maximal % of specifically bound [35S]-TBPS displaced [1]: 100%

CC(=O)C1=CC[C@H]2[C@@H]3CC[C@@H]4C[C@H](O)CC[C@]4(C)[C@H]3CC[C@]12C [3α-HYDROXY-5β-PREGN-16-EN-20-ONE]
IC50 [1, 3]: 1 µM
Max. Inhib., maximal % of specifically bound [35S]-TBPS displaced [1]: 100%

CC(C)CCC[C@@H](C)[C@H]1CC[C@H]2[C@@H]3CC=C4C[C@@H](O)CC[C@]4(C)[C@H]3CC[C@]12C [CHOLESTEROL, reference compound]
IC50, inhibition of [35S]-TBPS binding, +5 μM GABA ([1]; in the presence of 5 μM GABA): Inactive
potency/activity at the GR complex ([1]; modulation of [35S]TBPS binding): essentially inactive
Max. Inhib., maximal % of specifically bound [35S]-TBPS displaced [1]: 0%
IC50, inhibition of [35S]-TBPS binding, No GABA [1, 10]: Inactive

CC(=O)OCC(=O)[C@H]1CC[C@H]2[C@@H]3CC[C@H]4C[C@H](O)CC[C@]4(C)[C@H]3CC[C@]12C
responders at 60 mg/kg [2, 4]: 50%
responders at 60 mg/kg [2, 5]: 0%

CC(=O)[C@H]1CC[C@H]2[C@@H]3CC[C@H]4C[C@H](OC(=O)c5ccc(Cl)cc5)CC[C@]4(C)[C@H]3CC[C@]12C
responders at 60 mg/kg [2, 4]: 50%
responders at 60 mg/kg [2, 5]: < 16%

CC(=O)[C@H]1CC[C@H]2[C@@H]3CC=C4C[C@@H](O)CC[C@]4(C)[C@H]3CC[C@]12C [5-PREGNEN-3β-OL-20-ONE (PREGNENOLONE), 5-PREGNEN-3β-OL-20-ONE, reference compound]
IC50 [1, 3]: > 100 µM
Max. Inhib., maximal % of specifically bound [35S]-TBPS displaced [1]: 30%
IC50, inhibition of [35S]-TBPS binding, No GABA [1, 10]: Inactive

CC(=O)[C@H]1CC[C@H]2[C@@H]3CC[C@H]4C[C@H](O)CC[C@]4(C)[C@H]3C(=O)C[C@]12C [alphaxalone, 5α-PREGNAN-3α-OL-11,20-DIONE, reference compound]
IC50 [1, 3]: 0.264 µM
IC50 [1, 11]: 11 µM

CC(C)(O)[C@H]1CC[C@H]2[C@@H]3CC[C@H]4C[C@](C)(O)CC[C@]4(C)[C@H]3CC[C@]12C [3α,20-dihydroxy-3β,20-dimethyl-5α-pregnane]
inhibition at 10 µM (progesterone receptor; [6]): 5%
inhibition at 1 µM (progesterone receptor; [7]): 8%
inhibition at 10 µM (progesterone receptor; [8]): 0%
inhibition at 1 µM (progesterone receptor; [9]): 0%
Max. Inhib., maximal % of specifically bound [35S]-TBPS displaced [1]: 50%

C[C@H](O)[C@H]1CC[C@H]2[C@@H]3CC[C@@H]4C[C@H](O)CC[C@]4(C)[C@H]3CC[C@]12C [5β-pregnan-3α,20α-diol]
inhibition at 10 µM (progesterone receptor; [6]): 1%
inhibition at 10 µM (progesterone receptor; [8]): 1%

CC(=O)[C@H]1CC[C@H]2[C@@H]3CC[C@H]4C[C@H](OC(=O)C5=CN(C)C=CC5)CC[C@]4(C)[C@H]3CC[C@]12C
Antimetrazol activity, % of animals protected, 20 hr [2]: 63%
responders at 60 mg/kg [2, 4]: 0%
responders at 60 mg/kg [2, 5]: 0%

CC(=O)[C@H]1CC[C@H]2[C@@H]3CC[C@H]4C[C@@H]5O[C@@H]5C[C@]4(C)[C@H]3CC[C@]12C [2,3-EPOXY-5α-PREGNAN-20-ONE, 2α,3α-Epoxy-5α-pregnan-20-one, reference compound]
IC50 [1, 3]: 100 µM

CC(=O)[C@H]1CC[C@H]2[C@@H]3CC[C@H]4C[C@H](OC(=O)C(C)C)CC[C@]4(C)[C@H]3CC[C@]12C
responders at 60 mg/kg [2, 4]: 75%
responders at 60 mg/kg [2, 5]: 29%

C[C@]12CC[C@@H](O)C[C@@H]1CC[C@@H]1[C@@H]2CC[C@]2(C)[C@@H](O)CC[C@@H]12 [5α-ANDROSTAN-3α,17β-DIOL, 5α-ANDROSTAN-3α ,17β-DIOL]
IC50 [1, 3]: 1 µM
IC50 [1, 11]: 15 µM
Max. Inhib., maximal % of specifically bound [35S]-TBPS displaced [1]: 100%

C[C@]12CC[C@@H](O)C[C@@H]1CC[C@H]1[C@@H]3CC[C@H](C(=O)CO)[C@@]3(C)CC(=O)[C@@H]12 [5α-PREGNAN-3α,21-DIOL-11,20-DIONE, 5α-PREGNAN-3α,21-DIOL- 11,20-DIONE]
IC50 [1, 3]: 5.5 µM
IC50 [1, 11]: > 100 µM

C[C@]12CC[C@@H](O)C[C@@H]1CC[C@@H]1[C@@H]2CC[C@]2(C)[C@@H](C(=O)O)CC[C@@H]12 [3α-HYDROXY-5α-ANDROSTAN-17β-CARBOXYLATE, 3α-Hydroxy-5α-androstane-17β-carboxylic acid]
IC50 [1, 3]: 2.68 µM
Max. Inhib., maximal % of specifically bound [35S]-TBPS displaced [1]: 63%

C/C=C1/CC[C@H]2[C@@H]3CC[C@H]4C[C@H](O)CC[C@]4(C)[C@H]3CC[C@]12C [3α-HYDROXY-5α-CIS-PREGN-17(20)-ENE, 3α-hydroxy-(5α)-cis-pregn-17(20)-ene]
IC50 [1, 3]: 0.068 µM
Max. Inhib., maximal % of specifically bound [35S]-TBPS displaced [1]: 100%

Reference: patent US5232917A, “Methods, compositions, and compounds for allosteric modulation of the GABA receptor by members of the androstane and pregnane series” (priority 1991, dated 1993)
